The structures appear in SMILES notation.

The target of this test is T1, hKvβ1.1 1-140 (Homo sapiens, UniProt Q14722).
T1 construct: gene KCNAB1; E. coli BL21(DE3) pRIL; NHS-dye labelled
T1 sequence (Q14722 1-140 isoform Q14722-2): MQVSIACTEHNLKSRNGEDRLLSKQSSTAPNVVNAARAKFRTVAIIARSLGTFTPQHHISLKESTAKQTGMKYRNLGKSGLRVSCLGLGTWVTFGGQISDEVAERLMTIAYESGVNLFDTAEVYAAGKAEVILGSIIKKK
Kind of test: microscale thermophoresis. Particulars: read-out: binding constant.

`C=CC1=C(C)C2=Cc3c(C=C)c(C)c4[n]3[Fe]([Cl])[n]3c(c(C)c(CCC(=O)O)c3=CC3=NC(=C4)C(C)=C3CCC(=O)O)=CC1=N2` [hemin]: the Kd came out at 0.098 ± 0.014 µM.

The record behind these values is PMC7239824, “Impact of intracellular hemin on N-type inactivation of voltage-gated K^+ channels” (Pflugers Archiv, 2020).
